Like-named read-outs stand apart in the source and are kept apart here.

The term mortality denotes the percentage killed. As a reminder, the melting point is the temperature of the solid-liquid transition.

The test system of data set [1] is Spodoptera litura. Kind of data set: Mortality test for Spodoptera litura. The data set is classed as in vivo. Particulars: 144 h. Here is the method: (§1) A 10% emulsifiable concentrate of the compound of the present invention (depending on the type of the compound, a 10% wettable powder was subjected to the test) was diluted with water containing a spreader to prepare a drug solution in a concentration of 10 ppm. In this drug solution, a leaf of cabbage was immersed for about 10 seconds and was air-dried and then put into a petri dish. In the petri dish, five 2 instar larvae of Spodoptera litura per petri dish were released and the petri dish was capped and stored in a thermostatic room of 25° C. The number of killed larvae after 6 days was counted and the mortality was calculated from the same calculation formula as that in Test Example 1. Here, the test was carried out with two replications.

In data set [2] the test system is Plutella xylostella. Kind of data set: Mortality test for Plutella xylostella. The data set is classed as in vivo. The settings on record: 144 h. On the procedure:
as §1, with “Plutella xylostella” for “Spodoptera litura”, “following” for “same”, “formula: Mortality(%)=(number of killed larvae/number of released larvae)×100.” for “formula as that in Test Example 1.”

Data set [3] has as its system Nilaparvata lugens. Briefly: Mortality test for Nilaparvata lugens. The class given is in vivo. The settings on record: 144 h, drug solution 500 ppm, rice leaf sheath immersed, 2 instar larvae, after 6 days. Here is the method: (§2) A 10% emulsifiable concentrate of the compound of the present invention (depending on the type of the compound, a 10% wettable powder was subjected to the test) was diluted with water containing a spreader to prepare a drug solution in a concentration of 500 ppm. In this drug solution, a leaf sheath of rice was immersed for about 10 seconds and was air-dried and then put into a test tube. In the test tube, five 2 instar larvae of Nilaparvata lugens per test tube were released and the test tube was capped with a sponge and stored in a thermostatic room of 25° C. The number of killed larvae after 6 days was counted and the mortality was calculated from the same calculation formula as that in Test Example 1. Here, the test was carried out with two replications.

Data set [4] deals with Liriomyza trifolii. Kind of data set: Mortality test for Liriomyza trifolii. The data set is classed as in vivo. The settings on record: 144 h, drug solution 500 ppm, kidney bean leaf with eggs immersed, killed larvae after 6 days. Here is the method: as §2, with “leaf” for “leaf sheath”, “kidney bean on which Liriomyza trifolii laid eggs (10 eggs/leaf) and which was cut out to a diameter of 7 cm” for “rice”, “laid on” for “put into”, “wet filtration paper laid in a styrol cup having an inner diameter” for “test tube. In the test tube, five 2 instar larvae”, “7 cm. The styrol cup” for “Nilaparvata lugens per test tube were released and the test tube”, “capped” for “capped with a sponge”

For data set [5], the system named is Eysarcoris lewisi. Kind of data set: Mortality test for Eysarcoris lewisi. Particulars: 48 h, drug solution 500 ppm, rice leaf sheath immersed, 1 instar larvae, after 2 days. The class given is in vivo. On the procedure:
as §2, with “five 1” for “five 2”, “of Eysarcoris lewisi” for “of Nilaparvata lugens”, “after 2” for “after 6”

Data set [6] has as its system Aulacophora femoralis. Kind of data set: Mortality test for Aulacophora femoralis. The class given is in vivo. The settings on record: 144 h. On the procedure:
as §1, with “of 500” for “of 10”, “of cucumber” for “of cabbage”, “of Aulacophora femoralis” for “of Spodoptera litura”

Data set [7] concerns Helicoverpa armigera. Briefly: Mortality test for Helicoverpa armigera. The data set is classed as in vivo. Particulars: 144 h, drug solution 100 ppm, cabbage leaf immersed, 2 instar larva, after 6 days. On the procedure:
as §1, with “of 100” for “of 10”, “dish, one” for “dish, five”, “instar larva” for “instar larvae”, “of Helicoverpa armigera” for “of Spodoptera litura”, “dish was” for “dish were”, “with 12” for “with two”

Data set [8] concerns Homona magnanima. Briefly: Mortality test for Homona magnanima. The data set is classed as in vivo. Particulars: 144 h, drug solution 100 ppm, cabbage leaf immersed, 2 instar larvae, after 6 days. On the procedure:
as §1, with “of 100” for “of 10”, “of Homona magnanima” for “of Spodoptera litura”

Setting [9] is: drug solution 100 ppm (mark *), cabbage leaf immersed, 2 instar larvae, after 6 days, read-out: mortality.

`Cc1cc(C2=NOC(c3cc(Cl)cc(Cl)c3)(C(F)(F)F)C2Cl)ccc1C(=O)NCC(F)(F)F` (stereo not shown) [1-002, 4-(4-chloro-5-(3,5-dichlorophenyl)-5-trifluoromethyl-4,5-dihydroisoxazole-3-yl)-2-methyl-N-(2,2,2-trifluoroethyl)benzoic acid amide]: the mortality at 10 ppm in data set [1] (in Brassica oleracea) and in data set [2] (in Brassica oleracea) was not below 80% throughout.
As for `CON=CNC(=O)c1ccc(C2=NOC(c3cc(C(F)(F)F)cc(C(F)(F)F)c3)(C(F)(F)F)C2Br)cc1` (stereo not shown) [1-011, 4-(4-bromo-5-(3,5-bis(trifluoromethyl)phenyl)-5-trifluoromethyl-4,5-dihydroisoxazole-3-yl)-N-(methoxyiminomethyl)benzoic acid amide], the mortality at 100 ppm in [1] (in Brassica oleracea) and in data set [2] (in Brassica oleracea) was not below 80% each time. For the same compound, the mortality at 500 ppm in data set [3] was not below 80%.
Turning to `Cc1cc(C2=NOC(c3cc(Cl)cc(Cl)c3)(C(F)(F)F)C2Br)ccc1C(=O)NCC(F)(F)F` (stereo not shown) [1-003, 4-(4-bromo-5-(3,5-dichlorophenyl)-5-trifluoromethyl-4,5-dihydroisoxazole-3-yl)-2-methyl-N-(2,2,2-trifluoroethyl)benzoic acid amide], the mortality at 100 ppm in data set [1] (in Brassica oleracea) and in [2] (in Brassica oleracea) was not below 80% in each case. For the same compound, the mortality at 500 ppm in [4], in data set [5], in data set [6] (in Cucumis sativus) and in data set [3] was not below 80% in each case.
Take `CC1C(c2ccc(CN(C)C(=O)C3CC3)c(Br)c2)=NOC1(c1cc(Cl)cc(Cl)c1)C(F)(F)F` (stereo not shown) [2-005, N-(2-bromo-4-(5-(3,5-dichlorophenyl)-4-methyl-5-trifluoromethyl-4,5-dihydroisoxazole-3-yl)phenylmethyl)-N-(methyl)cyclopropanecarboxamide]: the mortality at 500 ppm in data set [1] (in Brassica oleracea) and in [2] (in Brassica oleracea) was not below 80% in each case.
Consider `CSc1ccc(C2=NOC(c3cc(Cl)cc(Cl)c3)(C(F)(F)F)C2Br)cc1` (stereo not shown) [4-002, 4-bromo-5-(3,5-dichlorophenyl)-3-(4-(methylthio)phenyl)-5-trifluoromethyl-4,5-dihydroisoxazole], for which the mortality at 100 ppm in data set [1] (in Brassica oleracea), in [2] (in Brassica oleracea) and in data set [7] was not below 80% in each case. This compound also showed a mortality at 500 ppm in data set [3] not below 80%.
As to `Cc1cc(C(/C=C(/c2cc(Cl)cc(Cl)c2)C(F)(F)F)=NO)ccc1C(=O)NCC(F)(F)F` [5-001, 4-((2Z)-3-(3,5-dichlorophenyl)-4,4,4-trifluoro-1-(hydroxyimino)-2-butenyl)-2-methyl-N-(2,2,2-trifluoroethyl)benzoic acid amide], the mortality at 100 ppm in data set [1] (setting [9]) and in data set [2] (setting [9]) was not below 80% throughout.
`NC(=O)c1ccc(C2=NOC(c3cc(C(F)(F)F)cc(C(F)(F)F)c3)(C(F)(F)F)C2Br)cc1` (stereo not shown): the melting point was in the range of 190 to 193 °C.
As for `CSC1C(c2ccc(C(=O)NCC(F)(F)F)c(C)c2)=NOC1(c1cc(Cl)cc(Cl)c1)C(F)(F)F` (stereo not shown) [1-005, 4-(5-(3,5-dichlorophenyl)-4-methylthio-5-trifluoromethyl-4,5-dihydroisoxazole-3-yl)-2-methyl-N-(2,2,2-trifluoroethyl)benzoic acid amide], the mortality at 100 ppm in [1] (in Brassica oleracea) and in data set [2] (in Brassica oleracea) was not below 80% throughout.
Consider `Cc1cc(C2=NOC(c3cc(Cl)cc(Cl)c3)(C(F)(F)F)C2C)ccc1C(=O)NCC(F)(F)F` (stereo not shown) [1-004, 4-(5-(3,5-dichlorophenyl)-4-methyl-5-trifluoromethyl-4,5-dihydroisoxazole-3-yl)-2-methyl-N-(2,2,2-trifluoroethyl)benzoic acid amide], for which the mortality at 100 ppm in data set [1] (in Brassica oleracea), in [2] (in Brassica oleracea) and in [8] was not below 80% throughout. Further, the mortality at 500 ppm in data set [4], in data set [5] and in data set [6] (in Cucumis sativus) was not below 80% throughout.
As for `Cc1cc(C(/C=C(\c2cc(Cl)cc(Cl)c2)C(F)(F)F)=NO)ccc1C(=O)NCC(F)(F)F` [6-001, 4-((2E)-3-(3,5-dichlorophenyl)-4,4,4-trifluoro-1-(hydroxyimino)-2-butenyl)-2-methyl-N-(2,2,2-trifluoroethyl)benzoic acid amide], the mortality at 500 ppm in data set [2] (drug solution 500 ppm (mark **), cabbage leaf immersed, 2 instar larvae, after 6 days, read-out: mortality) was not below 80%; in data set [6] (drug solution 500 ppm, cucumber leaf immersed, 2 instar larvae, after 6 days, read-out: mortality), not below 80%.
`O=C(NCc1ccc(C2=NOC(c3cc(Cl)cc(Cl)c3)(C(F)(F)F)C2Br)cc1Br)C1CC1` (stereo not shown) [2-002, N-(2-bromo-4-(4-bromo-5-(3,5-dichlorophenyl)-5-trifluoromethyl-4,5-dihydroisoxazole-3-yl)phenylmethyl)cyclopropylcarboxamide]: in data set [3], the mortality at 500 ppm was not below 80%.

Values taken from patent publication US8053452B2, “Substituted isoxazoline or enone oxime compound, and pest control agent” (Nissan Chemical Industries, Ltd., priority 2007, dated 2011).
